{"source": "BindingDB's records for doi:10.1016/j.ejmech.2014.06.037", "about": "(The Second People'S Hospital of Fujian Provinc, 2014)", "target": "Tumor necrosis factor (Homo sapiens, UniProt P01375)", "sequence (P01375 whole entry)": "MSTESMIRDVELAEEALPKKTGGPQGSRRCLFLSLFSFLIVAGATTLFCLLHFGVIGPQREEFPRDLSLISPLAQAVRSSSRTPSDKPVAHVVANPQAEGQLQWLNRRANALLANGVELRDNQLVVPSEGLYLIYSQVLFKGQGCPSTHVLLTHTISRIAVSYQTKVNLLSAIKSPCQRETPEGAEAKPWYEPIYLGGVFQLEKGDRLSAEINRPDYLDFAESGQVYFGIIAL", "test": "Binding affinity to TNF-alpha (unknown origin)"}
{"smiles": "C[C@H](CC(=O)C[C@@H](C)[C@H]1C[C@@H](O)[C@@]2(C)C3=C(C(=O)C[C@@]12C)[C@@]1(C)CCC(=O)C(C)(C)[C@H]1C[C@@H]3O)C(=O)O", "values": [{"measurement": "Kd", "value": 8, "unit": "nM"}]}
